Data: patent US20200360426A1, “PROTOCOL AND COMPOSITION FOR SUPPRESSION OF ALLERGIC RESPONSES” (priority 2019, published 2020)

Test system: apheresis patients (allergic reaction to dextran sulfate)
Excerpt: The protocol begins with the oral administration of an antacid and a histamine blocker. […] The histamine blocker can be selected from a number of commercial alternatives. These include, specifically, H-1 blockers, such as loratadine, fexofenadine and azelastine.
Centrally important and essential is the administration of magnesium, preferably magnesium IV, available as magnesium sulfate. Administration of magnesium sulfate, shortly in advance of apheresis, serves to relax the vascular system, and shift the patient or a sympathetic response to a parasympathetic vascular relaxation response. Magnesium realizes and calms the sympathetic FFF response, the survival instinct that is so prevalent in angioedema. […] While it can be infused over a longer period of more than one hour, a preferred protocol infuses it very rapidly. […] A drip in 100 ml-250 ml normal physiologic saline solution (Ns) or lactated Ringers solution (LR) has been employed. Other carriers, such as dextrose in water (5%) (D5W) or sterile water at smaller volumes, or similar physiologically compatible carriers may be used. A faster drip of not more than 30 minutes is preferable, and may be essential to intervene in and reduce ongoing severe reactions.
When the apheresis is done, dextran sulfate exposure can still cause a reaction. […] Apheresis patients also get oxygen via canula, 2-4 liters a minute through the procedure. […]

`O=S(=O)([O-])[O-].[Mg+2]` [magnesium sulfate] was tested, and the “allergic reactions observed during dextran sulfate apheresis” value (full protocol: ACE inhibitors stopped at least a week before, antacid and H-1 histamine blocker, magnesium sulfate IV no more than an hour before apheresis, at least 60 apheresis treatments, at least thirty patients) was “no issues and little or no allergic reactions were observed” and the “tolerance of Liposorber apheresis treatment” value (seven patients with previous anaphylactoid shock reaction to Liposorber even with IV steroids, magnesium sulfate without any supportive or additional treatments) was “allowed all 7 patients to tolerate the treatment”.
